Results on 6 compounds are retold here after patent US20110038920A1, “WOUND HEALING COMPOSITIONS AND TREATMENTS” (priority 2008, published 2011).

Counter-ions that a name gives are not always drawn. A value given as a limit tells only on which side of the number the result lay.

Series [1] relates to OPN expression in Swiss 3T3 fibroblasts exposed to macrophage CM. The series is described as follows: Macrophage-CM induction of OPN in fibroblasts with inhibitors (Western blot). Type of series: cell-based. The note with it: co-treatment; Gleevec 2-20 μM, PDGF-Rβ nAb 2 μg/ml, wortmannin 100 nM. Here is the method:
(§1) Protein samples (20 μg; collected in T-PER® Reagent; PIERCE Biotechnology) were separated on Tris-Glycine Gels (Invitrogen), transferred to PVDF, and blotted according to standard protocols (antibody details are provided above).
(§2) Swiss 3T3, J774.1 macrophages, and RBL mast cells were cultured in DMEM+10% fetal calf serum. Primary neutrophils were harvested by peritoneal lavage 4 h post-thioglycollate-induced peritonitis, and primary macrophages were derived from mouse bone marrow and activated with LPS (500 ng/ml).

Series [2] has as its system pulmonary and dermal fibrosis. As to conditions: Distler et al. 2007; Aono et al. 2005; cited from earlier work.
Series [3] concerns OPN expression in Swiss 3T3 fibroblasts. Put plainly: Induction of OPN expression in fibroblasts by growth factors/cytokines (Western blot). The class given is cell-based. The note with it: for ability to upregulate OPN expression in Swiss 3T3s: 8 h, PDGF-BB 20, EGF 100, TGFβ1 10, TGFβ3 10, IL-6 50, TNFα 10 ng/ml. As to the method:
as §1, §2
A general note: Immunoblotting shows a protein as a band on a membrane.

The test system of series [4] is Mouse OPN mRNA. The series is described as follows: AS ODN cleavage of OPN mRNA in vitro (RNase H). The note with it: ODN final concentration 2 μM, 20 min at 37° C., compared among the AS ODNs. The class given is biochemical. Here is the method: Dz cleavage of OPN mRNA in vitro: Mouse OPN mRNA was transcribed from the IMAGE clone (GenBank, BC057858; (Geneservice Ltd), and resulting RNA was purified with RNeasy MinElute Cleanup Kit (Qiagen). RNA (0.3 μg/5 μl) was incubated in the cleavage buffer (10 mM MgCl2, 5 mM Tris (pH 7.5), 150 mM NaCl) for 5 min at 37° C., as was 5 μl of Dzs (40 μM; MWG Biotech). These were then combined and incubated for 1 h. RNA products were separated on 2% formaldehyde-agarose gel and stained with SYBR Gold nucleic acid gel stain (Invitrogen) to determine cleaving efficiency (FIG. 6 A).
AS ODN cleavage in vitro: To evaluate the cleaving efficiency of the AS ODNs, transcribed RNA (0.3 μg) was incubated with control or OPN AS ODNs (final concentration of 2 μM; MWG Biotech), RNase H (Invitrogen. Corp.), and RNasin (to inhibit non-specific RNA degradation; Promega) in a final volume 10 μl of cleavage buffer, and incubated for 20 min at 37° C. RNA products were separated on 2% formaldehyde-agarose gel and stained with SYBR Gold nucleic acid gel stain (Invitrogen Corp.) to determine cleaving efficiency (FIG. 6 B).

The subject of series [5] is chronic ulcers. The note with it: cited from earlier work.

With `Cc1ccc(NC(=O)c2ccc(CN3CCN(C)CC3)cc2)cc1Nc1nccc(-c2cccnc2)n1` [Gleevec, imatinib mesylate], the “OPN expression during fibroblast exposure to macrophage CM” value in series [1] is reported as “significantly reduced”. Further, the “pulmonary and dermal fibrosis” value in series [2] was “reduces pulmonary and dermal fibrosis”.

“EGF: growth factor, R&D Systems (NSDSECPLSHDGYCLHDGVCMYIEALDKYACNCVVGYIGERCQYRDLKWWELR; Epidermal growth factor; UniProt P01133 971-1023, looked up)”: the “ability to upregulate OPN expression in Swiss 3T3s” value (shortened to “ability”) in series [3] is recorded as “not”.

In the case of IL-6: cytokine, BioSource, the “ability” value in series [3] is “not”.

In the case of “OPN AS ODN (943): osteopontin antisense oligodeoxynucleotide actatcgatcacatccg (SEQ.ID.NO: 164) (antisense ACTATCGATCACATCCG; DNA, backbone not given here)”, the “effectiveness at cleaving OPN mRNA” value in series [4] is “most effective”.

Consider PDGF-BB: growth factor, R&D Systems, for which the “ability” value in series [3] is on record as “significantly upregulate”. Also, the “time of peak OPN levels after initial exposure” value in series [3] (Swiss 3T3 fibroblasts, 20 ng/ml PDGF-BB) is “about 8 h”. Further, in series [3] (Swiss 3T3 fibroblasts, 20 ng/ml PDGF-BB, analysed at 8 h), the “minimum window of exposure required for OPN expression” value is no less than 2 h. Moreover, the “granulation tissue and scarring” value in series [5] (in vivo) is “increased granulation tissue and scarring”. In series [5] (topical application to wounds (Chan et al. 2006)), the “healing of chronic ulcers” value is “accelerate the healing”.

For the compound “TGFβ1: growth factor/cytokine, BioVision”, the “ability” value in series [3] is “not”.
